Some results are limits rather than exact numbers.

The target in experiment [1] is Acetylcholinesterase (Electrophorus electricus, UniProt O42275).
The target in experiment [2] is Acetylcholinesterase (Homo sapiens, UniProt P22303).
Description: Inhibition of human AChE by Ellman's assay
The next experiment addresses Cholinesterase (Equus caballus, UniProt P81908).

Chain of Acetylcholinesterase (Electrophorus electricus, UniProt O42275) (O42275 whole entry): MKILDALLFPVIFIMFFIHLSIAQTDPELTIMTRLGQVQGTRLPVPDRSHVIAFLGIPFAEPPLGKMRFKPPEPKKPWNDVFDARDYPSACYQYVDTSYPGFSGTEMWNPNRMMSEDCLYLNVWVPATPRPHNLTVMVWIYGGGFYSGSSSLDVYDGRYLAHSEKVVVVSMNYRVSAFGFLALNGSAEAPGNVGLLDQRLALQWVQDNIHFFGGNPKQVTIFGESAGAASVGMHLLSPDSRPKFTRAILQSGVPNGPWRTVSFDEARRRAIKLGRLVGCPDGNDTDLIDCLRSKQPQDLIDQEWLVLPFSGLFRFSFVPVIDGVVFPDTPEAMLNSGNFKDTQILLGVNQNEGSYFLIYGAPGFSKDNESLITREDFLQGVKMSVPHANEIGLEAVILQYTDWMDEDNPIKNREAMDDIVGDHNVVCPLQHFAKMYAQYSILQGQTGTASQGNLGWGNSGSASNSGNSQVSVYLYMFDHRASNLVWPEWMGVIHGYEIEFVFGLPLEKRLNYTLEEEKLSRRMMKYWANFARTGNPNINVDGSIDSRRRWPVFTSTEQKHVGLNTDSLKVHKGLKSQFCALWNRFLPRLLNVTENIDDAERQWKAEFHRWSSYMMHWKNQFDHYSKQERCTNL
Chain of Cholinesterase (P81908 whole entry): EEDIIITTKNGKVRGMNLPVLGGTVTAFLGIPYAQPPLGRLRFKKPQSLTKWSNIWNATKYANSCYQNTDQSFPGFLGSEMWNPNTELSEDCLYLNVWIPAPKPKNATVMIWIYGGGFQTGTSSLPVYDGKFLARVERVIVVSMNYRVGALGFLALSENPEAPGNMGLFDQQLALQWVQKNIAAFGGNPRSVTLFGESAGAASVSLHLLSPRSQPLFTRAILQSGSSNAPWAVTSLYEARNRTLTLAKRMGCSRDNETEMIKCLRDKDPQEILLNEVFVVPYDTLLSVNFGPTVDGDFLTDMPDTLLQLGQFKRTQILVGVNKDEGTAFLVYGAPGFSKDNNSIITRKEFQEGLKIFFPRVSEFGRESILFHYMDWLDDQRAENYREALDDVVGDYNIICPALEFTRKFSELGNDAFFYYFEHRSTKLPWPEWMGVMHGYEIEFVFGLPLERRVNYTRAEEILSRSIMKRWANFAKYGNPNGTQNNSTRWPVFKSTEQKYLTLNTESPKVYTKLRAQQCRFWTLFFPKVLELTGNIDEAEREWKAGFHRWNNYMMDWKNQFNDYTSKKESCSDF
Chain of Acetylcholinesterase (Homo sapiens, UniProt P22303) (P22303 whole entry): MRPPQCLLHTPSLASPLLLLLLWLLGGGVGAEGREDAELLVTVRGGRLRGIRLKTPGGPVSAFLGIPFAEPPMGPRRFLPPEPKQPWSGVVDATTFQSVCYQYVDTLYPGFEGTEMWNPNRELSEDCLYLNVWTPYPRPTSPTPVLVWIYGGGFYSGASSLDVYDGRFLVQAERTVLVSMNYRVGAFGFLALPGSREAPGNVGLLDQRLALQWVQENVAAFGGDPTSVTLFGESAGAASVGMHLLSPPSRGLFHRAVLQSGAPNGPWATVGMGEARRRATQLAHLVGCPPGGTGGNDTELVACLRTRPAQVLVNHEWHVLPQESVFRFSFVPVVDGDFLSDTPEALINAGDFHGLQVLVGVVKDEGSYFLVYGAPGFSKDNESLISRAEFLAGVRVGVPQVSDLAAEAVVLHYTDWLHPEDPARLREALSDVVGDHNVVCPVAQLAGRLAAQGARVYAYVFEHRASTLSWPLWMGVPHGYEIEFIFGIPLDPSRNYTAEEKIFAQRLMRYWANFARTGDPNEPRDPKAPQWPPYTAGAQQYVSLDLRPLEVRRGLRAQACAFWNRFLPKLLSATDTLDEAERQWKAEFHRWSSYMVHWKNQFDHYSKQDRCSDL

One may read the IC50 as the midpoint of a concentration-inhibition curve. With `COc1c(O)cc2c3c1-c1ccccc1C[C@H]3NCC2` [(-)-ASIMILOBINE], the IC50 on Acetylcholinesterase [1], against Acetylcholinesterase [2] and against Cholinesterase was greater than 100 µM each time.

On to `COc1ccc2c(=O)oc3c(OC)cc(CCN(C)C)c4c(=O)oc1c2c34` [TASPINE], for which the IC50 at Acetylcholinesterase [1] was 0.33 µM; at Acetylcholinesterase [2], 0.54 µM; at Cholinesterase it was greater than 100 µM.

The values above are taken from ChEMBL document CHEMBL1158060, “Taspine: bioactivity-guided isolation and molecular ligand-target insight of a potent acetylcholinesterase inhibitor from Magnolia x soulangiana” (J Nat Prod, 2006).
